Test results published in the NIST ThermoML archive (doi:10.1016/j.jct.2014.05.008).
± gives the expanded uncertainty stated by the source.

Settings: 101.33 kPa, Liquid; for mass density: Vibrating tube method; for thermal conductivity: hot wire

CCCC[N+]1(C)CCCC1.N#CN=C=[N-] [1-butyl-1-methylpyrrolidinium dicyanamide]
mass density (293.2 K): 1018.3 ± 0.9 kg/m3
thermal conductivity (293.5 K): 0.155 ± 0.011 W/m/K
mass density (303.2 K): 1011.8 ± 0.9 kg/m3
thermal conductivity (303.2 K): 0.155 ± 0.011 W/m/K
mass density (313.2 K): 1006.1 ± 0.9 kg/m3
thermal conductivity (313.3 K): 0.153 ± 0.011 W/m/K
mass density (323.2 K): 1000.6 ± 0.8 kg/m3
thermal conductivity (323.3 K): 0.151 ± 0.011 W/m/K
mass density (333.2 K): 995.6 ± 0.8 kg/m3
thermal conductivity (333.2 K): 0.147 ± 0.011 W/m/K
mass density (343.2 K): 991.3 ± 0.8 kg/m3
thermal conductivity (343.4 K): 0.142 ± 0.02 W/m/K

CCCCn1cc[n+](C)c1.N#CN=C=[N-] [1-butyl-3-methylimidazolium dicyanamide]
mass density (293.2 K): 1064.5 ± 1 kg/m3
thermal conductivity (293.6 K): 0.167 ± 0.011 W/m/K
mass density (303.2 K): 1057.5 ± 1 kg/m3
thermal conductivity (303.3 K): 0.166 ± 0.011 W/m/K
mass density (313.2 K): 1051 ± 1 kg/m3
thermal conductivity (313.4 K): 0.163 ± 0.011 W/m/K
mass density (323.2 K): 1045.1 ± 0.9 kg/m3
thermal conductivity (323.5 K): 0.163 ± 0.011 W/m/K
mass density (333.2 K): 1040.6 ± 0.9 kg/m3
thermal conductivity (333.7 K): 0.153 ± 0.011 W/m/K
mass density (343.2 K): 1035.7 ± 0.9 kg/m3
thermal conductivity (344.2 K): 0.15 ± 0.011 W/m/K

CCn1cc[n+](C)c1.N#CN=C=[N-] [1-ethyl-3-methylimidazolium dicyanamide]
mass density (293.2 K): 1107.5 ± 1.1 kg/m3
thermal conductivity (293.4 K): 0.183 ± 0.011 W/m/K
mass density (303.2 K): 1100.4 ± 1.1 kg/m3
thermal conductivity (303.3 K): 0.179 ± 0.011 W/m/K
thermal conductivity (313.1 K): 0.178 ± 0.02 W/m/K
mass density (313.2 K): 1093.5 ± 1 kg/m3
thermal conductivity (323 K): 0.181 ± 0.02 W/m/K
mass density (323.2 K): 1087 ± 1 kg/m3
mass density (333.2 K): 1081 ± 1 kg/m3
thermal conductivity (333.2 K): 0.17 ± 0.02 W/m/K
mass density (343.2 K): 1076.1 ± 1 kg/m3
thermal conductivity (343.4 K): 0.165 ± 0.02 W/m/K
